Laboratory results published in patent publication US10208007B2, “Use of strigolactones and strigolactone analogs for treating proliferative conditions” (The State of Israel, Ministry of Agriculture & Rural …, priority 2011, dated 2019).
Where “and” joins values, the source holds several entries; their conditions need not be identical. Equal entries are not always repeated.

Key:
BJ fibroblast = test: Cell cycle analysis (propidium iodide, flow cytometry); type: cell-based, human; details: 48 hours
Procedure: (§1) Adherent cells were trypsinyzed, washed twice with PBS and filtered through a […] cell sieve. DNA content was assessed by flow cytometry. Cells were seeded at densities of 1.5×10^5 cells (MDA-MB-231, MDA-MB-436), or 4×10^5 cells (MCF-7 and MCF10A), or 2×10^5 cells (SW480, HT-29), or 5×10^5 cells (HCT116), per well in DMEM with 10% FBS in 6-well plate culture dishes. […] After 48 hours, cells were washed twice with PBS (pH 7.4), centrifuged at 360 g for 10 minutes at 4° C., and fixed in chilled ethanol (70%; v/v in PBS) with gentle vortex mixing. To determine their DNA contents, the cells were stained with 40 μg/ml propidium iodide (hereinafter PI) and analyzed using a FACSCalibur flow cytometer and CellQuest analysis software (Becton Dickinson, San Jose, Calif.). Where phosphoHistone-H3 staining was carried out, cells were incubated with polyclonal antibody against phosphoHistone H3 and then with secondary Goat anti-rabbit IgG-conjugated to FITC prior to PI staining.

MDA-MB-231 [1] = test: as above; type: cell-based, human; details: 48 hours
Procedure: as §1

U20S = test: XTT viability assay; type: cell-based, human; details: 3 days
Procedure: (§2) Viability was assayed after 3 days (XTT, ATCC). IC50 concentrations are indicated (Table 3 above).

DU145 = test: XTT viability assay; type: cell-based, human; details: DU145, 3 days
Procedure: as §2

PC3 = test: XTT viability assay; type: cell-based, human; details: PC3, 3 days
Procedure: as §2

SW480 = test: XTT viability assay; type: cell-based, human; details: SW480, 3 days
Procedure: as §2

K562 = test: XTT viability assay; type: cell-based, human; details: K562, 3 days
Procedure: as §2

HCT116 = test: XTT viability assay; type: cell-based, human; details: HCT116, 3 days
Procedure: as §2

LNCaP = test: XTT viability assay; type: cell-based, human; details: 3 days
Procedure: as §2

T47D = test: XTT viability assay; type: cell-based, human; details: 3 days
Procedure: as §2

HT-29 = test: XTT viability assay; type: cell-based, human; details: HT-29, 3 days
Procedure: as §2

MDA-MB-231 [2] = test: XTT viability assay; type: cell-based, human; details: for IC50 at 72 h: MDA-MB-231, 3 days
Procedure: as §2

MCF-7 = test: XTT viability assay; type: cell-based, human; details: MCF-7, 3 days
Procedure: as §2

MCF10A = details: 3 days
Procedure: Results are presented as Average±SD of replicate analyses and are either representative of, or inclusive of at least two independent experiments. Statistical analyses were performed using student's t-test (2-tailed, paired) versus vehicle controls and are regarded as being significant when P<0.05(*). Higher powers (p<0.01, p<0.001) are also employed and indicated in each figure legend. IC50 doses for strigolactone analogs were calculated by interpolation of the sigmoidal dose response curves (Graphpad Prism 4.0 software). Briefly, linear regression was performed between relevant y-axis data points and interpolation calculated for x-axis unknowns.
Cells were seeded into a 96 well plates at 1500 cells per well (MCF-10, PC3, DU145, MDA-MB-231, MDA-MB-436, HT-29, SW480), 1000 cells per well (K562) or 4000 cells per well (MCF-7, HCT116) in triplicate in normal growing media (with the exception of K562, a non-adherent leukemic cell line which was seeded in phenol-free DMEM supplemented with 10% charcoal-stripped FBS). The following day media was replaced with phenol-free DMEM supplemented with 10% charcoal stripped FBS and the indicated final concentrations of strigolactone analog or vehicle (acetone) alone. Cells were incubated for 3 days, at which time XTT (2,3,-bis(2-methoxy-4-nitro-5-sulfophenyl)-5-[(phenylamino)-carbonyl]-2H-tetrazolium inner salt) reduction was used to quantify viability according to manufacturer's instruction (ATCC). Cells were incubated with XTT reagent for 2-3 hours at 37° C. in a humidified 5% CO2-95% air atmosphere. Absorbance was recorded by a photometer [sequence]luor Plus, Tecan (Salzburg, Austria) at 450 nm with 750 nm of reference wavelength. Cell survival was estimated from the equation: % cell survival=100×(At−Ac), where At and Ac are the absorbencies (450 nm) of the XTT colorimetric reaction (ATCC) in treated and control cultures respectively minus non-specific absorption measured at 750 nm. Absorbance of medium alone was also deducted from specific readings.
MCF-10A cells were included as an example of a non-tumorigenic line. XTT viability assays were carried out in the presence of the indicated doses of strigolactone analogs following 3 days of treatment. Resulting differences in absorbance readings following strigolactone analogs treatment reflect changes in proliferation and cell survival (FIG. 7A-C): Cells were seeded into 96 well plates in normal growing media. The following day media was replaced with phenol-free DMEM supplemented with 10% charcoal-stripped serum and the indicated doses of strigolactone analog or vehicle (cont.) alone. Viability was assayed after 3 days (XTT, ATCC).

CYCB1 = test: Gene transcription level by quantitative PCR: CYCB1; type: in vivo, Arabidopsis thaliana; details: for CYCB1 transcription level versus controls: 3 μM
Procedure: Seeds of homozygous lines of Arabidopsis thaliana wild type (WT; Columbia; Col-0) and max2-1 mutant (http://abrc.osu.edu/) were surface-sterilized and germinated on 1/2 Murashige and Skoog (MS) plates supplemented with 1% sucrose and solidified with 0.7% agar. Plates were incubated vertically in the dark at 4° C. for two days to synchronize germination. Three days after germination, seedlings were gently transferred using forceps to 1/2 MS plates containing various concentrations of GR-24 as a mixture of four diastereomers: (±)-GR-24 and (±)-2'-epi-GR-24. The root tip of the transferred seedling was marked on the plates. The plates remained unsealed to prevent accumulation of gases (e.g., ethylene), and were positioned in an upright 45° position, and incubated at 22° C. with a light intensity of […] photons m-2 s-1 provided by white fluorescent tubes and under a photoperiod of 16 hours exposure to light/8 hours in the dark for 6-12 days. GR-24 treatments were conducted at concentrations ranging from 2.7×10^-6 to 13.5×10^-6 M. […] GR-24, ST-357 and ST-362 were initially dissolved in acetone to give a 4.5 mM, 10 μM and 10 μM solutions, respectively, which were then further diluted with double-distilled sterile water (DDW). […] In each of the experiments, non-treated roots were compared to the respective acetone control. Where no difference was observed between the various controls, non-treated roots are shown. Where differences were recorded between non-treated and acetone controls, the comparison was made between GR-24, ST-357 and ST-362-treated and acetone-treated roots. RNA was extracted from seedlings grown and treated as described in Example 1. Quantitative PCR was performed by amplifying fragments of genes of interest (Tables 6 & 7). Arabidopsis 15S ribosomal RNA (GenBank accession no. AT1G04270.1) served as the reference gene for the amount of RNA, and was amplified using specific primers (forward) [NT] and (reverse) [NT]. The experiment was performed in 5-6 biological replicates; each replicate included 8 plants, on which 3 technical repeats were performed. Means and standard error were determined from all biological replicates. Primers were designed using PrimerQuest software (Integrated DNA Technologies). RNA was extracted using Trizol (Invitrogen, Carlsbad, Calif., USA) using the manufacturer's protocol. 1 μg RNA was reverse-transcribed in a total volume of 20 μl using the Superscript First strand cDNA synthesis kit (Invitrogen). PCR was performed in triplicate using an ABI-Prism 7900 instrument (Applied Biosystems, Foster City, Calif.) and SYBR Green I detection (Applied Biosystems) according to the manufacturer's protocol. The expression of each target gene was normalized to the expression of GAPDH RNA and is presented as the ratio of the target gene to GAPDH RNA, expressed as 2-ΔCt, where Ct is the threshold cycle and ΔCt=[NT] GAPDH.

IC50 at 72 h (DU145) [ppm]	IC50 at 72 h (PC3)	IC50 at 72 h (SW480) [ppm]	IC50 at 72 h (K562) [ppm]	IC50 at 72 h (HCT116) [ppm]	IC50 at 72 h (LNCaP) [ppm]	IC50 at 72 h (T47D) [ppm]	IC50 at 72 h (HT-29) [ppm]	IC50 at 72 h (MDA-MB-231 [2]) [ppm]	IC50 at 72 h (MCF-7) [ppm]	Structure (SMILES)	Cell Cycle Distribution G1 (BJ fibroblast; 5 ppm) [%]	Cell Cycle Distribution G2 (BJ fibroblast; 5 ppm) [%]	Cell Cycle Distribution S (BJ fibroblast; 5 ppm) [%]	SubG1/Apoptosis (BJ fibroblast; 5 ppm)	Cell Cycle Distribution G1 (MDA-MB-231 [1]; MDA-MB-231, 5 ppm) [%]	Cell Cycle Distribution G2 (MDA-MB-231 [1]; MDA-MB-231, 5 ppm) [%]	Cell Cycle Distribution S (MDA-MB-231 [1]; MDA-MB-231, 5 ppm) [%]	IC50 at 72 h (U20S) [ppm]	IC50 at 72 h (MCF10A) [ppm]	CYCB1 transcription level versus controls (CYCB1; WT seedlings)	further results
12.8	8.8 ppm	9.7	8.1	12.8	12	5.0	8.2	3.9	>12.8	CC1=CC(O/C=C2\Cc3c(n(C)c4cc(-c5cccs5)ccc34)C2=O)OC1=O (racemic) [MEB-55, (±) 2E-4-methyl-2-(4-methyl-5-oxo-2,5-dihydrofuran-2-yloxymethylene)-6-thiophen-2-yl-1,4-dihydro-2H-cyclopenta[b]indol-3-one]	78.96	11.54	5.930	0.57	49.61	28.33	14.51	2.7	>15	–	SubG1/Apoptosis (MDA-MB-231 [1]; MDA-MB-231, 5 ppm): 3.88
>15	5.3 ppm and 5.4 ppm	>15	>15	>15	14.4	>10	>15	5.0	>20	CC1=CC(O/C=C2/C(=O)c3c(c4cc(-c5cccs5)ccc4n3C)C2C)OC1=O (centres unmarked) [ST-357, (2E)-1,4-dimethyl-2-((4-methyl-5-oxo-2,5-dihydrofuran-2-yloxy)methylene)-7-(thiophen-2-yl)-1,2-dihydrocyclopenta[b]indol-3(4H)-one]	–	–	–	–	–	–	–	4.5	>15	0.460 ± 0.362	–
>15	>15 ppm	>15	>15	>15	13	8.8	>15	7.5	17.5	CC1=CC(O/C=C2\Cc3c(n(C)c4ccccc34)C2=O)OC1=O (racemic) [EG-5, (±) (2E)-4-methyl-2-(4-methyl-5-oxo-2,5-dihydrofuran-2-yloxymethylene)-1,4-dihydro-2H-cyclopenta[b]indol-3-one]	–	–	–	–	–	–	–	3.9	>15	–	Cell Cycle Distribution G1 (BJ fibroblast; 10 ppm): 82.29%; Cell Cycle Distribution G2 (BJ fibroblast; 10 ppm): 10.50%; Cell Cycle Distribution S (BJ fibroblast; 10 ppm): 4.480%; SubG1/Apoptosis (BJ fibroblast; 10 ppm): 0.49; Cell Cycle Distribution G1 (MDA-MB-231 [1]; MDA-MB-231, 10 ppm): 34.74%; Cell Cycle Distribution G2 (MDA-MB-231 [1]; MDA-MB-231, 10 ppm): 35.70%; Cell Cycle Distribution S (MDA-MB-231 [1]; MDA-MB-231, 10 ppm): 14.59%; SubG1/Apoptosis (MDA-MB-231 [1]; MDA-MB-231, 10 ppm): 11.32

Second part, the compound before the results:

Structure (SMILES)	IC50 at 72 h (DU145) [ppm]	IC50 at 72 h (PC3)	IC50 at 72 h (SW480) [ppm]	IC50 at 72 h (K562) [ppm]	IC50 at 72 h (HCT116) [ppm]	IC50 at 72 h (LNCaP) [ppm]	IC50 at 72 h (T47D) [ppm]	IC50 at 72 h (HT-29) [ppm]	IC50 at 72 h (MDA-MB-231 [2]) [ppm]	IC50 at 72 h (MCF-7) [ppm]	Cell Cycle Distribution G1 (BJ fibroblast; 5 ppm) [%]	Cell Cycle Distribution G2 (BJ fibroblast; 5 ppm) [%]	Cell Cycle Distribution S (BJ fibroblast; 5 ppm) [%]	SubG1/Apoptosis (BJ fibroblast; 5 ppm)	Cell Cycle Distribution G1 (MDA-MB-231 [1]; MDA-MB-231, 5 ppm) [%]	Cell Cycle Distribution G2 (MDA-MB-231 [1]; MDA-MB-231, 5 ppm) [%]	Cell Cycle Distribution S (MDA-MB-231 [1]; MDA-MB-231, 5 ppm) [%]	IC50 at 72 h (U20S) [ppm]	IC50 at 72 h (MCF10A) [ppm]	CYCB1 transcription level versus controls (CYCB1; WT seedlings)	further results
CC1=CC(O/C=C2/C(=O)c3c(c4cc(-c5scc6c5OCCO6)ccc4n3C)C2C)OC1=O (centres unmarked) [ST-362, (2E)-2-[(2,5-dihydro-4-methyl-5-oxofuran-2-yloxy)methylene]-1,2-dihydro-7-(2,3-dihydrothieno[3,4-b][1,4]dioxin-7-yl)-1,4-dimethyl-cyclopenta[b]indole-3-(4H)-one]	7.5	>15 ppm	2.9	4.3	6.0	9.8	8.6	7.3	2.9	8.1	83.42	12.86	1.580	0.72	42.17	37.93	11.90	2.8	>15	0.008 ± 0.007	SubG1/Apoptosis (MDA-MB-231 [1]; MDA-MB-231, 5 ppm): 4.17; IC20 concentration (MDA-MB-231 [2]; MDA-231, XTT): 1.5 ppm
CC1=C[C@H](O/C=C2/C(=O)O[C@@H]3c4ccccc4C[C@H]23)OC1=O (relative stereo) [GR-24, (3aR*,8bS*,E)-3-(((R*)-4-methyl-5-oxo-2,5-dihydrofuran-2-yloxy)methylene)-3,3a,4,8b-tetrahydro-2H-indeno[1,2-b]furan-2-one]	–	–	–	–	–	–	–	–	–	–	–	–	–	–	–	–	–	–	–	0.008 ± 0.003	Increase in the sub-G1/apoptotic fraction compared to vehicle (MDA-MB-231 [1]; 10 ppm): 4.6 fold; CYCB1 transcription level versus controls (CYCB1; max2-1 seedlings): 0.211 ± 0.078; CYCB1 transcription relative to controls (CYCB1; root tips, 2.7 μM): 0.97±0.47; CYCB1 transcription in comparison to controls (CYCB1; root tips, 13.5 μM): 0.16±0.00
